The test system of series [1] is mouse melanoma-derived cells B-16. Kind of series: Inhibitory activity against melanine synthesis. The series is classed as cell-based. As to conditions: for Inhibition Ratio (melanine synthesis) / Amount of Melanine: 4 days; for Amount of Melanine: mean ± SD of five flasks; for inhibitory activity against the melanine synthesis by melanocytes (in words): remarkable in concentrations of 0.0005 w/v% or more. The method, then:
3×10^4 cells of mouse melanoma-derived cells B-16 were inoculated in a plastic incubation flask (75 cm^3) and incubated in Eagle MEM medium containing 10% fetal bovine serum under the conditions of 5% CO2 and 37° C. Two days after the start of the incubation, the inulavosin obtained in Production Example 1 above, the acetylinulavosin obtained in Example 1, or the glucosylinulavosin obtained in Example 2 was added to the incubation flask so that its concentration in the medium became 5×10^−5 to 1×10^−3 (W/V%) as shown in Tables 1 to 3 below, and the incubation was continued for additional 4 days. After completion of the incubation, the medium was removed from the incubation flask and the flask was washed with equilibrium phosphate buffer solution (hereinafter referred as “PBS”). Thereafter, the cells adhered on the incubation flask were stripped off with a solution containing trypsin and EDTA and then the obtained mixture was centrifuged to collect the cells.
After washing the collected cells with PBS, 1N sodium hydroxide was added to the precipitate, and the mixture was heat-dissolved. After cooling, chloroform was added thereto and the mixture was stirred and centrifuged again. The resultant supernatant was measured for absorbance at 400 nm and the amount of melanine was obtained by a calibration curve prepared in advance using synthetic melanine. The amount of melanine was obtained as weight (μg) per 10^6 cells. In the experiments, five flasks were used for each concentration of the test samples.
Tables 1 to 3 show the results obtained as average values of five flasks together with standard deviations. Tables 1 to 3 show the results for inulavosin, acetylinulavosin, and glucosylinulavosin, respectively.
In addition, as a control, the amount of melanine was determined by conducting the same experiments as described above except that the compound represented by formula (I) was not added. From the amount of melanine in the absence of samples and the amount of melanine in the presence of a sample, there was obtained melanine synthesis inhibition ratio (R(%)) by the following equation. The amount of melanine in the equation was an average value obtained from five flasks.
R: Melanine synthesis inhibition ratio
A: Amount of melanine in the absence of samples
B: Amount of melanine in the presence of a sample

The next series relates to Staphylococcus aureus. The following applies: Heterocycles, Vol. 41, No. 9, 1923-1926 (1995); cited from earlier work.
For another series, the system named is Pseudomonas aeruginosa. The following applies: Heterocycles, Vol. 41, No. 9, 1923-1926 (1995); cited from earlier work.
Another series deals with fish. The following applies: Heterocycles, Vol. 41, No. 9, 1923-1926 (1995); cited from earlier work.

Turning to `CC(=O)Oc1cc(C)ccc1C1(C)CC(C)(C)c2ccc(C)cc2O1` (stereo not drawn) [Acetylinulavosin, 2′-acetoxy-2,4,4,7,4′-pentamethylflavan], the “Inhibition Ratio (melanine synthesis)” value came to 87.9% in series [1] (1 × 10^−3 W/V % in medium), 25.1% in series [1] (1 × 10^−4 W/V % in medium), 62.2% in series [1] (5 × 10^−4 W/V % in medium) and 9.3% in series [1] (5 × 10^−5 W/V % in medium). Moreover, the “Amount of Melanine” value in series [1] (1 × 10^−3 W/V % in medium) stood at 0.39 ± 0.18 μg/10^6 cells; in series [1] (1 × 10^−4 W/V % in medium) it was 2.42 ± 0.26 μg/10^6 cells; in series [1] (5 × 10^−4 W/V % in medium), 1.22 ± 0.17 μg/10^6 cells; in series [1] (5 × 10^−5 W/V % in medium), 2.93 ± 0.35 μg/10^6 cells. In addition, the “inhibitory activity against the melanine synthesis by melanocytes (in words)” value (shortened to “inhibitory activity”) in series [1] is on record as “have inhibitory activity against the melanine synthesis by melanocytes”.

Take `Cc1ccc2c(c1)OC(C)(c1ccc(C)cc1OC1O[C@H](CO)[C@@H](O)[C@H](O)[C@H]1O)CC2(C)C` (stereo partly drawn) [Glucosylinulavosin, 2′-O-glucosyl-2,4,4,7,4′-pentamethylflavan]: the “Inhibition Ratio (melanine synthesis)” value in series [1] (1 × 10^−3 W/V % in medium) stood at 80.8%; in series [1] (1 × 10^−4 W/V % in medium), 22.0%; in series [1] (5 × 10^−4 W/V % in medium) it was 58.2%; in series [1] (5 × 10^−5 W/V % in medium), 6.5%. The “Amount of Melanine” value in series [1] (1 × 10^−3 W/V % in medium) was determined as 0.62 ± 0.15 μg/10^6 cells; in series [1] (1 × 10^−4 W/V % in medium), 2.52 ± 0.23 μg/10^6 cells; in series [1] (5 × 10^−4 W/V % in medium) it was 1.35 ± 0.17 μg/10^6 cells; in series [1] (5 × 10^−5 W/V % in medium), 3.02 ± 0.33 μg/10^6 cells. Moreover, the “inhibitory activity” value in series [1] is “have inhibitory activity against the melanine synthesis by melanocytes”.

For `Cc1ccc(C2(C)CC(C)(C)c3ccc(C)cc3O2)c(O)c1` (stereo not drawn) [Inulavosin, 2′-hydroxy-2,4,4,7,4′-pentamethylflavan], the “Inhibition Ratio (melanine synthesis)” value in series [1] (1 × 10^−3 W/V % in medium) is 91.3%; in series [1] (1 × 10^−4 W/V % in medium), 31.0%; in series [1] (5 × 10^−4 W/V % in medium), 73.1%; in series [1] (5 × 10^−5 W/V % in medium) it was 15.2%. Moreover, the “Amount of Melanine” value is given as 0.28 ± 0.17 μg/10^6 cells in series [1] (1 × 10^−3 W/V % in medium), 2.23 ± 0.24 μg/10^6 cells in series [1] (1 × 10^−4 W/V % in medium), 0.87 ± 0.21 μg/10^6 cells in series [1] (5 × 10^−4 W/V % in medium) and 2.74 ± 0.32 μg/10^6 cells in series [1] (5 × 10^−5 W/V % in medium). Moreover, in series [1], the “inhibitory activity” value was “have inhibitory activity against the melanine synthesis by melanocytes”. Also, the antibacterial activity result in the series with Staphylococcus aureus and in the series with Pseudomonas aeruginosa was “antibacterial activity” throughout. In addition, the fish toxin activity entry with fish is on record as “fish toxin activity”.

Values taken from patent US6495524B1, “Benzo[b]pyran derivatives useful as external agents for the skin” (Pola Chemical Industries Inc., priority 1998, dated 2002).
